{"source": "patent US20100029542A1", "about": "“PROTEIN STERILISATION BY RADIATION AND ADDITION OF A STABILISING COMPOSITION” (priority 2006, published 2010)", "key": {"catalase": {"target": "T1, catalase (Bos taurus, UniProt P00432)", "T1 construct": "Catalase (from bovine liver, Sigma C9322, 2380 U /mg solid); purchased Sigma C9322; host or cells: bovine liver", "T1 sequence (P00432 2-527 limits assumed)": "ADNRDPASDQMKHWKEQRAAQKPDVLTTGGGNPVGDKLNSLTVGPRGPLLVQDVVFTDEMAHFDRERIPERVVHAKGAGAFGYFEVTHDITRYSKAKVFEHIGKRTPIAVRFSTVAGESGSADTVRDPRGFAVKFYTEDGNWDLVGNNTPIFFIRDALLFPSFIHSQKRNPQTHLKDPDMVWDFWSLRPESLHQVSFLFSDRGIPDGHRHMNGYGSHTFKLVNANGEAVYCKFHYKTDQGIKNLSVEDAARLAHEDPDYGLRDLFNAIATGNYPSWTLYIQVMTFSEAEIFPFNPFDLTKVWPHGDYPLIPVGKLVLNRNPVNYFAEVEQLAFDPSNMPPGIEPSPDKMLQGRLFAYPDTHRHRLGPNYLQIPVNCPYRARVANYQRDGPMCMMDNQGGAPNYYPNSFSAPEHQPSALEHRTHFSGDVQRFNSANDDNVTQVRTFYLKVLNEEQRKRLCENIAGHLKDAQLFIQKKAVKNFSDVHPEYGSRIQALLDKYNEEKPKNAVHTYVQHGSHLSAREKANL", "assay": "Activity recovery of catalase in dry formulations following gamma irradiation", "format": "physicochemical, bovine", "details": "Table 10, superoxide scavengers; catalase 100 μg mL^−1 prior to drying; dry; 25-40 kGy", "experimental": "(§1) In each example, an aqueous solution of a protein was prepared with selected additives in an Eppendorf tube or in a glass vial. Water was removed from the formulation by drying under a stream of nitrogen at 30° C. and subsequent incubation at atmospheric pressure in the presence of a dessicant. The Eppendorf tubes or the glass vials were sealed and delivered to an industrial sterilisation service for gamma irradiation, with a dose range typical for sterile medical products. The gamma-irradiated samples were reconstituted on their return and analysed for protein activity or structural integrity. The results were compared with those achieved using control (i.e. non-irradiated) samples.\n(§2) The dry samples (approx. 20 μg in an Eppendorf tube) were gamma-irradiated by an industry-standard commercial sterilising service provided by Isotron PLC (Swindon, Wilts, UK), using a Cobalt 60 gamma source at ambient temperature. The radiation dose was in the range of 25-40 kGy.\nThe original solutions (i.e. solutions prior to drying) contained 100 μg mL^−1 of catalase and typically the total of 100 mM of protective compounds (i.e. 100 mM in case of a single compound, 50 mM+50 mM in case of two compounds, 33.3 mM+33.3 mM+33.3 mM in the case of three compounds etc.). The solutions were dried and gamma irradiated. Following the gamma irradiation, the samples, both pre- and post-gamma irradiated, were assayed for […] activity. This was performed according to the following procedure:\nWater was added to the sample to achieve 100 μg mL^−1 of catalase. 100 μL of the solution was added to a mixture of 18 mL of PBS and 2 mL of hydrogen peroxide (30 mM in water) in a 125 mL polypropylene pot and mixed. The resulting mixture was incubated at room temperature precisely for 30 min. In the meantime, the following reagents were mixed in a plastic cuvette for spectrophotometric measurements: • 2.73 mL of citrate/phosphate buffer (0.1 M, pH 5.0) • 100 μL of tetramethylbenzidine (TMB) (3 mg/mL, dissolved in dimethyl sulphoxide (DMSO)) • 100 μL of lactoperoxidase\nFollowing the 30 min incubation period, 70 μL of the catalase containing mixture was added to the cuvette and absorbance was read in approximately 30 s. The results were expressed as percentage recovery, by reference to the absorbance measured in the fresh samples (i.e. prior to incubation at increased temperature)."}, "human growth hormone [1]": {"target": "T2, human growth hormone (Homo sapiens, UniProt P01241)", "T2 construct": "purchased National Institute of Biological Standards and Control; further samples on prescription from a GP surgery", "T2 sequence (P01241 27-217)": "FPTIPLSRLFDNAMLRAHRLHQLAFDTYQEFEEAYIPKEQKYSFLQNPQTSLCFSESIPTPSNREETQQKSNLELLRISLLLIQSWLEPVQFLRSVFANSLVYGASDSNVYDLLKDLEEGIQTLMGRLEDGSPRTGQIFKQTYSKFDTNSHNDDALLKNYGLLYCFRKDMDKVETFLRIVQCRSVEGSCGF", "assay": "Recovery of structural integrity of human growth hormone in dry formulations following gamma irradiation (HPLC)", "format": "physicochemical", "details": "Table 4, prior-art antioxidants; structural integrity by HPLC; human growth hormone 2.5 mg mL^−1 prior to drying; dry; 25-40 kGy, ambient temperature"}, "human growth hormone [2]": {"target": "T2, human growth hormone", "assay": "Recovery of structural integrity of human growth hormone in dry formulations following gamma irradiation (HPLC)", "format": "physicochemical", "details": "structural integrity by HPLC, human growth hormone 2.5 mg mL^−1 prior to drying, 25-40 kGy", "experimental": "as §1, §2\nMobile phase was prepared by mixing 71 parts (by volume) of a solution of TRIS (0.05 M, in water adjusted with hydrochloric acid to a pH of 7.5) and 29 parts (by volume) of n-propylalcohol. The mobile phase was filtered prior to its use. The liquid chromatograph (Agilent 1100 series) was equipped with a 214 nm detector and a 4.6×250 mm column (Phenomenex 00G-4167-E0) packed with butylsilyl silica gel with a granulometry of 5 μm and a porosity of 30 nm, maintained at 45° C. The flow rate was maintained at 0.5 mL min^−1. 15 μL of aqueous samples of human growth hormone (typically 1-2.5 mg mL^−1) were injected. Results were expressed as % of peak area corresponding to the gamma irradiated sample with respect to that measured in non-irradiated sample."}, "Sandostatin": {"system": "Sandostatin", "assay": "Recovery of structural integrity of Sandostatin in dry formulations following gamma irradiation (HPLC)", "format": "physicochemical", "details": "structural integrity by HPLC, excipient:Sandostatin weight ratio 10:1, 25-40 kGy", "experimental": "as §1, §2\nMobile phase A was 0.1 M triethylamine adjusted to pH 2.3 with phosphoric acid. Mobile phase B was acetonitrile. The mobile phases were filtered prior to their use. The following linear gradient was used: time 0: 90% A+10% B; time 35 min: 60% A+40% B. The liquid chromatograph (Agilent 1100 series) was equipped with a 214 nm detector, guard column and a 4.6×150 mm C18 column with a granulometry of 5 μm and a porosity of 30 nm, maintained at ambient temperature. The flow rate was maintained at 1.0 mL min^−1. Injection volume was 50 μL (typically sandostatin at 200 μg mL^−1). Results were expressed as % of main peak area (i.e. area of the peak corresponding to intact sandostatin measured in the gamma irradiated sample with respect to that measured in non-irradiated sample of identical composition). A chromatogram of a standard solution of sandostatin was recorded after every 12 samples to ensure that no drift in the position of the major peak had occurred. The control measurements ruled out any ambiguity in interpreting the chromatograms."}, "[3]": {"details": "cited from earlier work"}}, "note": "Like-named read-outs stand apart in the source and are kept apart here."}
{"smiles": "CSCC[C@H](N)C(=O)O", "note": "[Methionine]", "values": [{"measurement": "Enzyme activity remaining after gamma-irradiation", "setting": "catalase", "result": 44.3, "unit": "%"}, {"measurement": "Structural integrity remaining after gamma-irradiation (HPLC)", "setting": "human growth hormone [1]", "result": 69.7, "unit": "%"}, {"measurement": "Structural integrity remaining after gamma-irradiation (HPLC)", "setting": "human growth hormone [2]; Table 4, prior-art antioxidants, ambient temperature", "result": 69.7, "unit": "%"}, {"measurement": "Structural integrity remaining after gamma-irradiation (HPLC)", "setting": "human growth hormone [2]; Table 7, singlet oxygen scavengers", "result": 69.7, "unit": "%"}, {"measurement": "Structural integrity remaining after gamma-irradiation (HPLC)", "setting": "human growth hormone [2]; Table 11, superoxide scavengers", "result": 69.7, "unit": "%"}, {"measurement": "Enzyme activity remaining after gamma-irradiation", "setting": "Sandostatin; Table 8, singlet oxygen scavengers", "result": 91.1, "unit": "%"}, {"measurement": "Enzyme activity remaining after gamma-irradiation", "setting": "Sandostatin; Table 12, superoxide scavengers", "result": 91.1, "unit": "%"}, {"measurement": "Rate of reaction with singlet oxygen", "setting": "[3]; Table 5", "result": "1.3e+07", "unit": "M⁻¹ s⁻¹"}, {"measurement": "Rate of reaction with singlet oxygen", "setting": "[3]; Table 7", "result": "1.3e+07", "unit": "M⁻¹ s⁻¹"}, {"measurement": "Rate of reaction with singlet oxygen", "setting": "[3]; Table 8", "result": "1.3e+07", "unit": "M⁻¹ s⁻¹"}]}
